What was measured:
C57BL/6 mice [1] = test: Chemotherapy (CYP)-induced hair loss and depigmentation in depilated mice, topical 44-mer ointment; format: in vivo, mouse
Protocol: (§1) Before use, the stock containing the 44-mer was prepared into a working dilution, which is then mixed with an antibiotic ointment containing 5 mg/g neomycin sulfate and 12.5 mg/g bacitracin to obtain an antibiotic ointment containing 25 μM of 44-mer. As to other PEDF peptides, 5 μl of 5 mM PEDF peptide stock was gradually dissolved in ethyl alcohol (30% w/w in distilled water), and then 1-oleoyl-rac-glycerol (1% w/w, a skin penetration enhancer) and light mineral oil (1% w/w) were gradually added. The solution was finally gelled by adding hydroxypropyl methylcellulose (5% w/w) to a final volume of 1 ml. A DMSO vehicle corresponding to the peptide formulation was prepared for the purpose of in vivo comparison. FITC-29-mer was also dissolved in the same formulation for applied on top of skin to determining the follicular distribution of FITC-29-mer.
(§2) For topical treatments, 350 mg ointment or gel containing 25 μM of PEDF peptide was spread gently over dorsal skin per mouse.
For immunostaining, de-paraffinized tissue sections were blocked with 10% goat serum for 1 hour. Dual staining was done using primary antibodies against c-kit (1:100 dilution; red) and tyrosinase (1:100 dilution) at 37° C. for 2 hours, followed by incubation with the rhodamine-conjugated goat anti-rabbit IgG antibody (1:500 dilution) for 1 hour at room temperature a before counterstaining with hematoxylin (blue) for about 7 minutes.
The vibrissae follicle cryosections were washed three times in PBS. Formalin-fixed, paraffin-embedded skin specimens were deparaffinized in xylene and rehydrated in a graded series of ethanol. Sections were then stained with TdT-mediated dUTP nick-end labeling (TUNEL)-based kit (Roche Molecular Biochemicals, Indianapolis, Ind.) following the manufacturer's instructions. The cell number was monitored by counterstaining with Hoechst 33258 (blue). The nuclei were calculated in ten randomly selected fields of the three different chambers by a Zeiss epifluorescence microscope (400×, 10 fields/sample). Pictures were recorded on Zeiss software.
6-week-old female C57BL/6 mice that had normal black fur (i.e., those had heavily melanized terminal hair shafts) were used in this example. In four independent experiments, a total of 80 mice were used. C57BL-6 mice have been widely used in the research of alopecia and hair-depigmentation induced by chemotherapy. Only mice in the resting stage of the hair cycle (telogen) were used in these studies. Since pigment production (melanogenesis) in mice occurs exclusively in anagen follicles, telogen C57BL-6 mice could be recognized by the homogeneously pink color of their back skin. Anagen was induced in the back skin of telogen mice by depilation.
In order to obtain mice that were in exactly the same stage of anagen development, the dorsal hairs were carefully shaved with an electric clipper. Nine days after the depilation, hair grown to anagen phase as judged by skin color from pink (telogen skin) to gray (early stage of anagen VI).
On day-9 post-depilation, mice were anesthetized by an intraperitoneal injection of a mixture of zoletil (6 mg/kg) and xylazine (3 mg/kg). Mice were randomly assigned to the following experimental groups. In the CYP/vehicle group, mice received intraperitoneal injection of cyclophosphamide (CYP, an anti-cancer drug) (150 mg/kg), and 350 mg antibiotic ointment was applied to the back skin at the same time. […]

C57BL/6 mice [2] = test: Hydrogen peroxide (oxidative stress)-induced hair loss and depigmentation in depilated mice; format: in vivo, mouse; settings: ointment with 25 μM 44-mer
Protocol: as §1, §2
In this example, the relationships between the stress caused by endogenous challenge (e.g., oxidants) and hair loss and hair graying were investigated. The mice were selected and depilated as described in Example 1 above. On day-9 post-depilation, the mice were subcutaneously injected with hydrogen peroxide at a dose of 10 ml/kg body weight. […]

With “VLLSPLSVATALSALSLGAEQRTESIIHRALYYDLISSPDIHGT [44-mer, 44-mer fragment (residues 78-121) of human PEDF]” the “hair growth activity versus CYP/vehicle (photographs, FIG. 1)” value (C57BL/6 mice [1]; 7 and 36 days after the CYP injection) was “better hair growth activity”, the “hair colour versus CYP and CYP/vehicle groups (FIG. 1)” value (C57BL/6 mice [1]; 36 days after CYP injection) was “substantially darker hairs” and the “TUNNEL Labeling Index (%)” value (C57BL/6 mice [1]; no CYP injection, 350 mg antibiotic ointment containing 44-mer on back skin) was under 0.1%. For the same sequence, the “TUNNEL Labeling Index (%)” value (C57BL/6 mice [1]; with CYP 150 mg/kg i.p., 350 mg antibiotic ointment containing 25 μM 44-mer on back skin daily) was 10.6 ± 1.4 %, the “c-kit and tyrosinase expression in the bulge (immunostaining, FIG. 3)” value (C57BL/6 mice [1]; with CYP, barely detected in CYP/vehicle group) was “c-kit and tyrosinase expression were found in the bulge” and the “hair growth activity versus H2O2/vehicle (photographs, FIG. 4)” value (C57BL/6 mice [2]; 22 days after the H2O2 injection (10 ml/kg s.c.)) was “better hair growth activity”. The “hair color versus H2O2/vehicle (FIG. 4)” value (C57BL/6 mice [2]; 22 days after the H2O2 injection) was “darker”.

Source: patent US9938328B2, “Use of PEDF-derived polypeptides for treating alopecia and/or hair depigmentation” (MacKay Memorial Hospital, priority 2012, dated 2018)
